From PubChem BioAssay (NCI)
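1) Cells in 96-well plates. 2) Compound, 48 h, 5 concentrations. 3) Linear interpolation between surrounding doses. 4) Unreached endpoint = highest concentration. TGI: total growth inhibition.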

How the values were obtained:
Assay in all cases: NCI tumour cell line growth inhibition, 48 h
OVCAR-5 ovarian = test system: OVCAR-5 ovarian
K-562 leukemia = test system: K-562 leukemia
HS 578T breast = test system: HS 578T breast
NCI-H23 lung = test system: NCI-H23 lung
RPMI-8226 leukemia = test system: RPMI-8226 leukemia
UACC-62 melanoma = test system: UACC-62 melanoma
SK-MEL-2 melanoma = test system: SK-MEL-2 melanoma
COLO 205 colon = test system: COLO 205 colon
HOP-92 NSCLC = test system: HOP-92 NSCLC
HCC-2998 colon = test system: HCC-2998 colon
NCI-H226 lung = test system: NCI-H226 lung
SK-OV-3 ovarian = test system: SK-OV-3 ovarian
NCI-H460 lung = test system: NCI-H460 lung
OVCAR-3 ovarian = test system: OVCAR-3 ovarian
SF-268 CNS = test system: SF-268 CNS
MCF7 breast = test system: MCF7 breast
KM12 colon = test system: KM12 colon
T-47D breast = test system: T-47D breast
SF-539 CNS = test system: SF-539 CNS
TK-10 renal = test system: TK-10 renal
HOP-62 NSCLC = test system: HOP-62 NSCLC
SN12C renal = test system: SN12C renal
ACHN renal = test system: ACHN renal
BT-549 breast = test system: BT-549 breast
HT29 colon = test system: HT29 colon
IGROV1 ovarian = test system: IGROV1 ovarian
M14 melanoma = test system: M14 melanoma
SNB-75 CNS = test system: SNB-75 CNS
DU-145 prostate = test system: DU-145 prostate
786-0 renal = test system: 786-0 renal
RXF 393 renal = test system: RXF 393 renal
SK-MEL-28 melanoma = test system: SK-MEL-28 melanoma
OVCAR-8 ovarian = test system: OVCAR-8 ovarian
MOLT-4 leukemia = test system: MOLT-4 leukemia
EKVX NSCLC = test system: EKVX NSCLC
SF-295 CNS = test system: SF-295 CNS
UACC-257 melanoma = test system: UACC-257 melanoma
OVCAR-4 ovarian = test system: OVCAR-4 ovarian
UO-31 renal = test system: UO-31 renal
HCT-116 colon = test system: HCT-116 colon
MDA-MB-231 breast = test system: MDA-MB-231 breast
NCI/ADR-RES ovarian = test system: NCI/ADR-RES ovarian
SK-MEL-5 melanoma = test system: SK-MEL-5 melanoma
SNB-19 CNS = test system: SNB-19 CNS
U251 CNS = test system: U251 CNS
MDA-N = test system: MDA-N
MDA-MB-435 = test system: MDA-MB-435
SW-620 colon = test system: SW-620 colon
HL-60(TB) leukemia = test system: HL-60(TB) leukemia
A498 renal = test system: A498 renal
A549 NSCLC = test system: A549 NSCLC
SR leukemia = test system: SR leukemia
NCI-H522 lung = test system: NCI-H522 lung
MALME-3M melanoma = test system: MALME-3M melanoma
HCT-15 colon = test system: HCT-15 colon
CCRF-CEM leukemia = test system: CCRF-CEM leukemia
PC-3 prostate = test system: PC-3 prostate
CAKI-1 renal = test system: CAKI-1 renal
LOX IMVI melanoma = test system: LOX IMVI melanoma

Measured: TGI

Cc1ccc(S(=O)(=O)N2CCSCCSCCSCCN(S(=O)(=O)c3ccc(C)cc3)CC2)cc1
not listed: SR leukemia | NCI-H522 lung | MALME-3M melanoma | HCT-15 colon | CCRF-CEM leukemia | PC-3 prostate | CAKI-1 renal | LOX IMVI melanoma
> 100 µM: all other assays above

CCOC(=O)C(=CNc1ccc(F)c(F)c1)C(=O)OCC
not listed: UACC-62 melanoma | BT-549 breast | SF-295 CNS
> 100 µM: all other assays above

O=c1c(Sc2c(SCSc3cnc4ccccc4c3Sc3c[nH]c4ccccc4c3=O)cnc3ccccc23)c[nH]c2ccccc12
25 µM: SR leukemia
not listed: K-562 leukemia | SK-MEL-2 melanoma | NCI-H226 lung | SK-OV-3 ovarian | MCF7 breast | RXF 393 renal | A498 renal | A549 NSCLC | MALME-3M melanoma | PC-3 prostate
> 100 µM: all other assays above

CC(=O)c1ccc(Nc2c3ccccc3nc3occc23)cc1
32.2 µM: MOLT-4 leukemia
0.402 µM: HT29 colon
1.59 µM: KM12 colon
< 0.0216 µM: RXF 393 renal
48.8 µM: UACC-257 melanoma
3.19 µM: 786-0 renal
15.7 µM: TK-10 renal
2.92 µM: M14 melanoma
50 µM: SK-MEL-28 melanoma
32.8 µM: T-47D breast
> 45.9 µM: EKVX NSCLC
4.68 µM: CAKI-1 renal
4.46 µM: CCRF-CEM leukemia
0.607 µM: IGROV1 ovarian
12.6 µM: A498 renal
0.541 µM: MDA-MB-231 breast
0.453 µM: NCI-H460 lung
10.7 µM: UACC-62 melanoma
18.5 µM: SR leukemia
0.0645 µM: SK-MEL-2 melanoma
83.5 µM: HOP-92 NSCLC
< 0.01 µM: NCI-H522 lung | MDA-N | MDA-MB-435 | HL-60(TB) leukemia
4.28 µM: RPMI-8226 leukemia
5.39 µM: DU-145 prostate
45.2 µM: NCI-H226 lung
13.2 µM: SK-OV-3 ovarian
17.1 µM: NCI-H23 lung
> 100 µM: OVCAR-5 ovarian | K-562 leukemia | HOP-62 NSCLC | BT-549 breast | PC-3 prostate | UO-31 renal | LOX IMVI melanoma | SNB-19 CNS | SW-620 colon
> 72.5 µM: ACHN renal
> 35.1 µM: A549 NSCLC
0.136 µM: COLO 205 colon
56.4 µM: SN12C renal
> 4.64 µM: U251 CNS
0.794 µM: HCC-2998 colon
< 0.128 µM: MCF7 breast
7.01 µM: OVCAR-8 ovarian
> 42.8 µM: HCT-15 colon
7.49 µM: SF-268 CNS
29.4 µM: MALME-3M melanoma
> 34.7 µM: HCT-116 colon
3.91 µM: SK-MEL-5 melanoma
